Reference: patent US8895585B2, “Nicotinamide derivative or salt thereof” (FUJIFILM Corporation, priority 2010, dated 2014)

Biological target: T1, glutathione S-transferase (GST)-fused full-length human Syk protein (Homo sapiens, UniProt P43405)
T1 construct: (GST)-fused full-length human Syk protein; GST (glutathione S-transferase); purchased Carna Biosciences
Test: Syk enzyme assay
Assay type: biochemical
Details: Syk enzyme assay, Test Example 1; read-out: IC50 of Syk-inhibitory activity
How it was run: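 IC50 values come from a time-resolved FRET readout (615 and 665 nm) of substrate phosphorylation, measured after an EDTA stop and 1 h antibody binding. The kinase reaction ran 40 min at room temperature with 27 μM ATP and 0.4 μM biotin-peptide, following a 15 min compound preincubation with baculovirus-made GST-full-length human Syk.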

IC50 [nM]	SMILES
< 10	NC(=O)c1cc(F)c(N[C@@H]2CCCC[C@@H]2N)nc1Nc1cncc(NC(=O)c2ccno2)c1 (relative stereo) [Example 027-036, N-(5-(6-(cis-2-aminocyclohexylamino)-3-carbamoyl-5-fluoropyridin-2-yl)aminopyridin-3-yl)isoxazole-5-carboxamide]
< 10	Cn1nnc2cc(C(=O)Nc3cncc(Nc4nc(N[C@@H]5CCCC[C@@H]5N)c(F)cc4C(N)=O)c3)ccc21 (relative stereo) [Example 027-042, N-(5-(6-(cis-2-aminocyclohexylamino)-3-carbamoyl-5-fluoropyridin-2-yl)aminopyridin-3-yl)-1-methyl-1H-benzo[d][1,2,3]triazol-5-carboxamide]
< 10	NC(=O)c1cc(F)c(N[C@@H]2CCCC[C@@H]2N)nc1Nc1ccc2[nH]c(C(=O)N3CCOCC3)cc2c1 (relative stereo) [Example 029-017, 6-(cis-2-aminocyclohexylamino)-5-fluoro-2-((2-(morpholine-4-carbonyl)-1H-indol-5-yl)amino)nicotinamide]
< 10	NC(=O)c1cc(F)c(N[C@@H]2CCCC[C@@H]2N)nc1Nc1ccc2[nH]c(C(=O)NCc3ccccc3)cc2c1 (relative stereo) [Example 029-018, 5-((6-(cis-2-aminocyclohexylamino)-3-carbamoyl-5-fluoropyridin-2-yl)amino)-N-benzyl-1H-indole-2-carboxamide]
< 10	NC(=O)c1cc(F)c(N[C@@H]2CCCC[C@@H]2N)nc1Nc1ccc2[nH]c(C(=O)NCCN3CCOCC3)cc2c1 (relative stereo) [Example 029-019, 5-((6-(cis-2-aminocyclohexylamino)-3-carbamoyl-5-fluoropyridin-2-yl)amino)-N-(2-morpholinoethyl)-1H-indole-2-carboxamide]
< 10	NC(=O)c1cc(F)c(N[C@@H]2CCCC[C@@H]2N)nc1Nc1cc(O)c2ncccc2c1 (relative stereo) [Example 042-000]
< 10	COc1cccc(Nc2nc(NC3CCCCC3N)c(F)cc2C(N)=O)c1 (centres unmarked) [Example 002-006]
10 to 50	CN1CCN(c2ccc(Nc3nc(NC4CCCCC4N)c(F)cc3C(N)=O)cn2)CC1 (centres unmarked) [Example 002-021]
10 to 50	Cc1cc(Nc2nc(NC3CCCCC3N)c(F)cc2C(N)=O)cc(C)n1 (centres unmarked) [Example 002-022]
< 10	Cc1ncc(Nc2nc(NC3CCCCC3N)c(F)cc2C(N)=O)cc1-c1ccccc1 (centres unmarked) [Example 002-023]
< 10	NC(=O)c1cc(F)c(NC2CCCCC2N)nc1Nc1cccc2c1cnn2CCN1CCCC1 (centres unmarked) [Example 002-026]
< 10	NC(=O)c1cc(F)c(NC2CCCCC2N)nc1Nc1cccc2c1cnn2CCN1CCOCC1 (centres unmarked) [Example 002-027]
< 10	NC(=O)c1cc(F)c(NC2CCCCC2N)nc1Nc1cccc2c1cnn2CC1CC1 (centres unmarked) [Example 002-028]
10 to 50	NC(=O)c1cc(F)c(NC2CCCCC2N)nc1Nc1cccc2c1cnn2Cc1ccccc1 (centres unmarked) [Example 002-029]
< 10	CCOCCOCCn1ncc2c(Nc3nc(NC4CCCCC4N)c(F)cc3C(N)=O)cccc21 (centres unmarked) [Example 002-031]
< 10	NC(=O)c1cc(F)c(NC2CCCCC2N)nc1Nc1cccc2nn(Cc3ccccc3)cc12 (centres unmarked) [Example 002-033]
< 10	COCCn1cc2c(Nc3nc(NC4CCCCC4N)c(F)cc3C(N)=O)cccc2n1 (centres unmarked) [Example 002-034]

Second part, the compound before the results:

SMILES	IC50 [nM]
NC(=O)c1cc(F)c(N[C@@H]2CCCC[C@@H]2N)nc1Nc1cncc(NC(=O)c2ccc(S(=O)(=O)F)cc2)c1 (relative stereo) [Example 027-017, 4-((5-(6-(cis-2-aminocyclohexylamino)-3-carbamoyl-5-fluoropyridin-2-yl)aminopyridin-3-yl)carbamoyl)benzene-1-sulfonyl fluoride]	10 to 50
CS(=O)(=O)Nc1cccc2cc(Nc3nc(N[C@@H]4CCCC[C@@H]4N)c(F)cc3C(N)=O)cnc12 (relative stereo) [Example 41-2, 6-(cis-2-aminocyclohexylamino)-5-fluoro-2-((8-(methylsulphonamide)quinolin-3-yl)amino)nicotinamide]	< 10
NC(=O)c1cc(F)c(N[C@@H]2CCCC[C@@H]2N)nc1Nc1cnc2c(NS(=O)(=O)CCl)cccc2c1 (relative stereo) [Example 41-3, 6-(cis-2-aminocyclohexylamino)-2-((8-(2-chloromethylsulphonamide)quinolin-3-yl)amino)-5-fluoronicotinamide]	10 to 50
COc1ccc(S(=O)(=O)Nc2cccc3cc(Nc4nc(N[C@@H]5CCCC[C@@H]5N)c(F)cc4C(N)=O)cnc23)cc1 (relative stereo) [Example 41-5, 6-(cis-2-aminocyclohexylamino)-5-fluoro-2-((8-(4-methoxyphenylsulphonamide)quinolin-3-yl)amino)nicotinamide]	50 to 100
NC(=O)c1cc(F)c(N[C@@H]2CCCC[C@@H]2N)nc1Nc1cnc2c(NS(=O)(=O)c3ccc(Cl)cc3)cccc2c1 (relative stereo) [Example 41-6, 6-(cis-2-aminocyclohexylamino)-2-((8-(4-chlorophenylsulphonamide)quinolin-3-yl)amino)-5-fluoronicotinamide]	50 to 100
NC(=O)c1cc(F)c(N[C@@H]2CCCC[C@@H]2N)nc1Nc1cnc2c(NS(=O)(=O)c3cccnc3)cccc2c1 (relative stereo) [Example 41-8, 6-(cis-2-aminocyclohexylamino)-5-fluoro-2-((8-(pyridin-3-sulphonamide)quinolin-3-yl)amino)nicotinamide]	10 to 50
NC(=O)c1cc(F)c(N[C@@H]2CCCC[C@@H]2N)nc1Nc1cnc2c(NC(=O)c3ccccn3)cccc2c1 (relative stereo) [Example 41-10, 6-(cis-2-aminocyclohexylamino)-5-fluoro-2-((8-picolinamidequinolin-3-yl)amino)nicotinamide]	< 10
CC(C)(C)C(=O)Nc1cccc2cc(Nc3nc(N[C@@H]4CCCC[C@@H]4N)c(F)cc3C(N)=O)cnc12 (relative stereo) [Example 41-11, 6-(cis-2-aminocyclohexylamino)-5-fluoro-2-((8-pivalamidequinolin-3-yl)amino)nicotinamide]	< 10

Same assay, conditions: read-out: Syk-inhibitory activity (IC50)

IC50 [nM]	SMILES
≤ 1000	NC(=O)c1cncc(Nc2nc(N[C@@H]3CCCC[C@@H]3N)c(F)cc2C(N)=O)c1 (relative stereo) [Example 28, 2-(5-aminocarbonylpyridin-3-ylamino)-6-(cis-2-aminocyclohexylamino)-5-fluoronicotinamide]
≤ 1000	NC(=O)c1cc(F)c(N[C@@H]2CCCC[C@@H]2N)nc1Nc1cncc(C(=O)O)c1 (relative stereo) [Example 29-1, 5-((3-aminocarbonyl-6-(cis-2-aminocyclohexylamino)-5-fluoropyridin-2-yl)amino)nicotinic acid]
≤ 1000	NC(=O)c1cc(Nc2nc(N[C@@H]3CCCC[C@@H]3N)c(F)cc2C(N)=O)ccn1 (relative stereo) [Example 29-12, 4-((3-aminocarbonyl-6-(cis-2-aminocyclohexylamino)-5-fluoropyridin-2-yl)amino)pyridin-2-carboxamide]
≤ 1000	CNC(=O)c1cc(Nc2nc(N[C@@H]3CCCC[C@@H]3N)c(F)cc2C(N)=O)ccn1 (relative stereo) [Example 29-13, 4-((3-aminocarbonyl-6-(cis-2-aminocyclohexylamino)-5-fluoropyridin-2-yl)amino)-N-methylpyridin-2-carboxamide]
